Results from ChEMBL document CHEMBL3046381, “Synthesis and Fungicidal Activity of New Six-membered Cyclic Phosphates” (1995).

Tests used:
Type in all cases: functional
[1] = system: Athelia rolfsii; assay: Growth inhibition of Athelia rolfsii at 100 ppm by agar dilution method; conditions: Agroathelia rolfsii; read-out: GI
[2] = system: Pythium; assay: Growth inhibition of Pythium sp. at 100 ppm by agar dilution method; conditions: read-out: GI
[3] = system: Pythium; assay: Growth inhibition of Pythium sp. at 1000 ppm by agar dilution method; conditions: read-out: GI
[4] = system: Athelia rolfsii; assay: Growth inhibition of Athelia rolfsii at 1000 ppm by agar dilution method; conditions: Agroathelia rolfsii; read-out: GI
[5] = system: Athelia rolfsii; assay: Growth inhibition of Athelia rolfsii at 50 ppm by agar dilution method; conditions: Agroathelia rolfsii; read-out: GI
[6] = system: Pythium; assay: Growth inhibition of Pythium sp. at 10 ppm by agar dilution method; conditions: read-out: GI
[7] = system: Athelia rolfsii; assay: Growth inhibition of Athelia rolfsii at 10 ppm by agar dilution method; conditions: Agroathelia rolfsii; read-out: GI
[8] = system: Pythium; assay: Growth inhibition of Pythium sp. at 50 ppm by agar dilution method; conditions: read-out: GI

SMILES: CC(C)c1ccc2c(c1)COP(=S)(OCCc1ccccc1)O2 (stereo not given)
- inhibition of growth at 100 ppm [1]: 30.6%
- inhibition of growth at 100 ppm [2]: 74.6%
- inhibition of growth at 1000 ppm [3]: 100%
- inhibition of growth at 1000 ppm [4]: 100%

SMILES: CC(C)=CCCC(C)CCOP1(=S)OCc2ccccc2O1 (stereo not given)
- inhibition of growth at 100 ppm [1]: 36.6%
- inhibition of growth at 100 ppm [2]: 38.8%
- inhibition of growth at 1000 ppm [3]: 96%
- inhibition of growth at 1000 ppm [4]: 100%

SMILES: C=CCc1ccc(OP2(=S)OCc3cc(C(C)C)ccc3O2)c(OC)c1 (stereo not given)
- inhibition of growth at 100 ppm [1]: 18.8%
- inhibition of growth at 100 ppm [2]: 22.9%
- inhibition of growth at 1000 ppm [3]: 83.9%
- inhibition of growth at 1000 ppm [4]: 71.2%

SMILES: Cc1ccc(OP2(=S)OCc3ccccc3O2)c(C(C)C)c1 (stereo not given)
- inhibition of growth at 100 ppm [1]: 37.3%
- inhibition of growth at 100 ppm [2]: 0%
- inhibition of growth at 1000 ppm [3]: 80.8%
- inhibition of growth at 1000 ppm [4]: 83.3%

SMILES: Cc1ccc(C(C)C)c(OP2(=S)OCc3ccccc3O2)c1 (stereo not given)
- inhibition of growth at 100 ppm [1]: 27.7%
- inhibition of growth at 100 ppm [2]: 45.2%
- inhibition of growth at 1000 ppm [3]: 100%
- inhibition of growth at 1000 ppm [4]: 99.8%

SMILES: Cc1ccc(C(C)C)c(OP2(=S)OCc3ccccc3O2)c1Cl (stereo not given)
- inhibition of growth at 100 ppm [1]: 12.3%
- inhibition of growth at 100 ppm [2]: 27.9%
- inhibition of growth at 1000 ppm [3]: 97.4%
- inhibition of growth at 1000 ppm [4]: 85.5%

SMILES: C=CCc1ccc(OP2(=S)OCc3ccccc3O2)c(OC)c1 (stereo not given)
- inhibition of growth at 100 ppm [1]: 25.5%
- inhibition of growth at 100 ppm [2]: 28.6%
- inhibition of growth at 1000 ppm [3]: 87.4%
- inhibition of growth at 1000 ppm [4]: 100%

SMILES: O=P1(Oc2ccccc2)OCc2ccccc2O1 (stereo not given)
- inhibition of growth at 100 ppm [1]: 2.1%
- inhibition of growth at 100 ppm [2]: 76%
- inhibition of growth at 1000 ppm [3]: 100%
- inhibition of growth at 1000 ppm [4]: 88.7%

SMILES: S=P1(OCCc2ccccc2)OCc2ccccc2O1 (stereo not given)
- inhibition of growth at 100 ppm [1]: 81.6%
- inhibition of growth at 100 ppm [2]: 70.1%
- inhibition of growth at 1000 ppm [3]: 100%
- inhibition of growth at 1000 ppm [4]: 100%

SMILES: CCCCCCCOP1(=S)OCc2ccccc2O1 (stereo not given)
- inhibition of growth at 100 ppm [1]: 52.6%
- inhibition of growth at 100 ppm [2]: 42.4%
- inhibition of growth at 1000 ppm [3]: 100%
- inhibition of growth at 1000 ppm [4]: 100%

SMILES: CCCCCCCCCCCOP1(=S)OCc2ccccc2O1 (stereo not given)
- inhibition of growth at 100 ppm [1]: 25%
- inhibition of growth at 100 ppm [2]: 0%
- inhibition of growth at 1000 ppm [3]: 100%
- inhibition of growth at 1000 ppm [4]: 88.1%

SMILES: CCCCCCCCCCCCCOP1(=S)OCc2ccccc2O1 (stereo not given)
- inhibition of growth at 100 ppm [1]: 3.1%
- inhibition of growth at 100 ppm [2]: 6.3%
- inhibition of growth at 1000 ppm [3]: 100%
- inhibition of growth at 1000 ppm [4]: 100%

SMILES: CCCCCCCCCCCCCCCOP1(=S)OCc2ccccc2O1 (stereo not given)
- inhibition of growth at 100 ppm [1]: 6%
- inhibition of growth at 100 ppm [2]: 24.9%
- inhibition of growth at 1000 ppm [3]: 86%
- inhibition of growth at 1000 ppm [4]: 32.3%

SMILES: CCc1ccc2c(c1)COP(=S)(OC)O2 (stereo not given)
- inhibition of growth at 100 ppm [1]: 100%
- inhibition of growth at 50 ppm [5]: 92.4%
- inhibition of growth at 100 ppm [2]: 91.1%
- inhibition of growth at 1000 ppm [3]: 96%
- inhibition of growth at 10 ppm [6]: 1.9%
- inhibition of growth at 10 ppm [7]: 24.6%
- inhibition of growth at 1000 ppm [4]: 100%
- inhibition of growth at 50 ppm [8]: 64.4%

SMILES: CCc1ccc2c(c1)COP(=O)(Oc1ccccc1)O2 (stereo not given)
- inhibition of growth at 100 ppm [1]: 100%
- inhibition of growth at 50 ppm [5]: 57.6%
- inhibition of growth at 100 ppm [2]: 89.1%
- inhibition of growth at 1000 ppm [3]: 98.7%
- inhibition of growth at 10 ppm [6]: 38.5%
- inhibition of growth at 10 ppm [7]: 26.6%
- inhibition of growth at 1000 ppm [4]: 100%
- inhibition of growth at 50 ppm [8]: 78.6%

SMILES: CCc1ccc2c(c1)COP(=S)(Oc1ccc(C)cc1C(C)C)O2 (stereo not given)
- inhibition of growth at 100 ppm [1]: 88.6%
- inhibition of growth at 100 ppm [2]: 49.5%
- inhibition of growth at 1000 ppm [3]: 100%
- inhibition of growth at 1000 ppm [4]: 100%

SMILES: CCc1ccc2c(c1)COP(=S)(Oc1cc(C)ccc1C(C)C)O2 (stereo not given)
- inhibition of growth at 100 ppm [1]: 30.4%
- inhibition of growth at 100 ppm [2]: 41.7%
- inhibition of growth at 1000 ppm [3]: 96.8%
- inhibition of growth at 1000 ppm [4]: 100%

SMILES: CCc1ccc2c(c1)COP(=S)(OCCc1ccccc1)O2 (stereo not given)
- inhibition of growth at 100 ppm [1]: 57%
- inhibition of growth at 100 ppm [2]: 95.4%
- inhibition of growth at 1000 ppm [3]: 100%
- inhibition of growth at 1000 ppm [4]: 100%

SMILES: COP1(=S)OCc2cc(C(C)C)ccc2O1 (stereo not given)
- inhibition of growth at 100 ppm [1]: 96.9%
- inhibition of growth at 50 ppm [5]: 92.5%
- inhibition of growth at 100 ppm [2]: 71.1%
- inhibition of growth at 1000 ppm [3]: 82.6%
- inhibition of growth at 10 ppm [6]: 0%
- inhibition of growth at 10 ppm [7]: 62%
- inhibition of growth at 1000 ppm [4]: 100%
- inhibition of growth at 50 ppm [8]: 50%

SMILES: Cc1ccc(OP2(=S)OCc3cc(C(C)C)ccc3O2)c(C(C)C)c1 (stereo not given)
- inhibition of growth at 100 ppm [1]: 62.5%
- inhibition of growth at 100 ppm [2]: 26.8%
- inhibition of growth at 1000 ppm [3]: 85.9%
- inhibition of growth at 1000 ppm [4]: 71.3%

SMILES: Cc1ccc(C(C)C)c(OP2(=S)OCc3cc(C(C)C)ccc3O2)c1 (stereo not given)
- inhibition of growth at 100 ppm [1]: 61.9%
- inhibition of growth at 100 ppm [2]: 33.8%
- inhibition of growth at 1000 ppm [3]: 85.9%
- inhibition of growth at 1000 ppm [4]: 84.6%

SMILES: COP1(=S)OCc2ccccc2O1 (stereo not given) [SALITHION]
- inhibition of growth at 100 ppm [1]: 60.7%
- inhibition of growth at 100 ppm [2]: 74.8%
- inhibition of growth at 1000 ppm [3]: 100%
- inhibition of growth at 1000 ppm [4]: 100%
